Consider 17 molecules from patent publication US5807854A, “Pyrimidone derivatives with antifungal activity” (J. Uriah & Cia. S.A., priority 1995, dated 1998).

The structures appear in SMILES notation. In brackets after ≈: the same amount, converted by molar mass. Where only a bound is given, the exact number is not on record here.

One assay concerns C. albicans. The assay is described as follows: In vitro activity by the agar dilution method, C. albicans. It counts as cell-based. The note with it: Candida albicans; Kimmig's agar, 25° C., 48 h; read-out: MIC (minimal inhibitory concentration), C. albicans. The method, then:
(§1) In vitro activity was evaluated against C. albicans, C. krusei, and Aspergillus fumigatus by the agar dilution method. Test strains were either clinical isolates or were obtained from ATCC. Stock solutions containing 800 μg/mL were prepared by solving the test products in 50% ethanol. The culture medium used was Kimmig's agar (K. A., E. Merck) supplemented with 0.5% glycerol. Plates containing serial dilutions (80 to 0.025 gg/imL) of the test products were inoculated with 10 μL of the fungal inocula, containing 10^5 colony forming units (cfu)/mL. Plates were incubated at 25° C. during 48 h for Candida sp. and during 5 days for Apergillus fumigatus. Following incubation MICs (minimal inhibitory concentrations) were determined.

A further assay has as its system C. krusei. The assay is described as follows: In vitro activity by the agar dilution method, C. krusei. It counts as cell-based. The note with it: Pichia kudriavzevii; Kimmig's agar, 25° C., 48 h; read-out: MIC (minimal inhibitory concentration), C. krusei. The method, then: as §1
A further assay deals with Aspergillus fumigatus. The assay is described as follows: In vitro activity by the agar dilution method, Aspergillus fumigatus. Format: cell-based. The note with it: 120 h, Kimmig's agar, 25° C., 5 days, read-out: MIC (minimal inhibitory concentration), Asp. fumigatus. The method, then:
as §1

The test system of a further assay is systemic aspergillosis. The assay is described as follows: In Vivo Activity (Systemic Aspergillosis). More on the design: species or system mice. The note with it: p.o. 20 mg/kg/day, 5 days; control mortality on day 25 was 90%.
A further assay concerns Candida albicans. The assay is described as follows: In Vivo Activity (Systemic Candidiasis). The note with it: po, 576 h, male mice, i.v. infection, read-out: protection on the day where all the animals in the control group had died; for responders at 10 mg/kg: orally at 10 mg/kg (asterisk) at 1, 4 and 24 h after infection; for responders at 1 mg/kg: orally at 1 mg/kg at 1, 4 and 24 h after infection. The method, then:
Groups of 10 male mice were inoculated i.v. with 0.2 mL of a suspension containing (2-8)×10^7 cfu/mL of Candida albicans. Compounds were administered orally at 1 mg/kg (or at 10 mg/kg for those compounds marked with an asterisk) at times 1, 4 and 24 h after infection.

`C[C@@H](n1cnc2cc(C#N)ccc2c1=O)[C@](O)(Cn1cncn1)c1ccc(F)cc1F` [Example 2, (1R,2R)-7-Cyano-3-[2-(2,4-difluorophenyl)-2-hydroxy-1-methyl-3-(1H-1,2,4-triazol-1-yl)propyl]quinazolin-4(3H)-one]: the MIC in the assay with C. albicans was at most 0.03 µg/mL; in the assay on C. krusei, 1.25 µg/mL (≈ 2.96 µM); in the assay on Aspergillus fumigatus it was 1.25 µg/mL (≈ 2.96 µM). The “protection on day 25 postinfection” value in the assay on systemic aspergillosis is on record as 60-100%.
For the molecule `C[C@@H](n1cnc2cc(Cl)ccc2c1=O)[C@](O)(Cn1cncn1)c1ccc(F)cc1F` [Example 1, (1R,2R)-7-Chloro-3-[2-(2,4-difluorophenyl)-2-hydroxy-1-methyl-3-(1H-1,2,4-triazol-1-yl)propyl]quinazolin-4(3H)-one], the MIC with C. albicans was at most 0.03 µg/mL; with C. krusei, 0.63 µg/mL (≈ 1.46 µM); in the assay with Aspergillus fumigatus it was 0.31 µg/mL (≈ 0.718 µM). Further, the responders at 10 mg/kg in the assay on Candida albicans is 100%. Besides, the “protection on day 25 postinfection” value in the assay on systemic aspergillosis is given as 60-100%.
Consider `C[C@@H](n1cnc2cc(OCC(F)(F)C(F)F)ccc2c1=O)[C@](O)(Cn1cncn1)c1ccc(F)cc1F` [Example 17, (1R,2R)-3-[2-(2,4-Difluorophenyl)-2-hydroxy-1-methyl-3-(1H-1,2,4-triazol-1-yl)propyl]-7-(2,2,3,3-tetrafluoropropoxy)quinazolin-4(3H)-one], for which the MIC is at most 0.03 µg/mL in the assay on C. albicans, 0.63 µg/mL (≈ 1.19 µM) in the assay on C. krusei and 20 µg/mL (≈ 37.9 µM) with Aspergillus fumigatus. For the same molecule, the responders at 1 mg/kg in the assay on Candida albicans turned out to be 100%.
With `C[C@@H](n1cnc2cc(Oc3ccc(Cl)cc3)ccc2c1=O)[C@](O)(Cn1cncn1)c1ccc(F)cc1F` [Example 39, (1R,2R)-7-(4-Chlorophenoxy)-3-[2-(2,4-difluorophenyl)-2-hydroxy-1-methyl-3-(1H-1,2,4-triazol-1-yl)propyl]quinazolin-4(3H)-one], the MIC with C. albicans is at most 0.03 µg/mL; with C. krusei it was 0.15 µg/mL (≈ 0.286 µM); in the assay on Aspergillus fumigatus, 1.25 µg/mL (≈ 2.39 µM). For the same molecule, the responders at 1 mg/kg with Candida albicans was 100%.
Turning to `C[C@@H](n1cnc2cc(I)ccc2c1=O)[C@](O)(Cn1cncn1)c1ccc(F)cc1F` [Example 74, (1R,2R)-3-[2-(2,4-Difluorophenyl)-2-hydroxy-1-methyl-3-(1-H-1,2,4-triazol-1-yl)propyl]-7-iodoquinazolin-4(3H)-one], the MIC with C. albicans was at most 0.03 µg/mL; with C. krusei it was 0.31 µg/mL (≈ 0.592 µM); in the assay on Aspergillus fumigatus, 0.31 µg/mL (≈ 0.592 µM). For the same molecule, the responders at 1 mg/kg in the assay on Candida albicans was 100%.
In the case of `C[C@@H](n1cnc2ccc(Cl)cc2c1=O)[C@](O)(Cn1cncn1)c1ccc(F)cc1F` [Example 7, (1R,2R)-6-Chloro-3-[2-(2,4-difluorophenyl)-2-hydroxy-1-methyl-3-(1H-1,2,4-triazol-1-yl)propyl]quinazolin-4(3H)-one], the MIC with C. albicans was at most 0.03 µg/mL; in the assay with C. krusei, 2.5 µg/mL (≈ 5.79 µM); in the assay with Aspergillus fumigatus, 40 µg/mL (≈ 92.6 µM). The responders at 1 mg/kg in the assay with Candida albicans was found to be 100%.
For `C[C@@H](n1cnc2cc(OCC(F)(F)F)ccc2c1=O)[C@](O)(Cn1cncn1)c1ccc(F)cc1F` [Example 20, (1R,2R)-3-[2-(2,4-Difluorophenyl)-2-hydroxy-1-methyl-3-(1H-1,2,4-triazol-1-yl)propyl]-7-(2,2,2-trifluoroethoxy)quinazolin-4(3H)-one] the same measures were 0.31 µg/mL (≈ 0.626 µM), 1.25 µg/mL (≈ 2.52 µM), 10 µg/mL (≈ 20.2 µM) and 100%.
For `CONC(=N)c1ccc(-c2cc3ncn([C@H](C)[C@](O)(Cn4cncn4)c4ccc(F)cc4F)c(=O)c3s2)cc1` [Example 67, (1R,2R)-3-[2-(2,4-Difluorophenyl)-2-hydroxy-1-methyl-3-(1H-1,2,4-triazol-1-yl)propyl]-6-[4-[imino(methoxyamino)methyl]phenyl]thieno[3,2-d]pyrimidin-4(3H)-one] the same measures were 0.31 µg/mL (≈ 0.562 µM), 0.63 µg/mL (≈ 1.14 µM), 1.25 µg/mL (≈ 2.27 µM) and 100%.
For `C[C@@H](n1cnc2cc(Br)c(F)cc2c1=O)[C@](O)(Cn1cncn1)c1ccc(F)cc1F` [Example 75, (1R,2R)-7-Bromo-3-[2-(2,4-difluorophenyl)-2-hydroxy-1-methyl-3-(1H-1,2,4-triazol-1-yl)propyl]-6-fluoroquinazolin-4(3H)-one], the results for the MIC with C. albicans, in the assay on C. krusei and in the assay with Aspergillus fumigatus were 0.15 µg/mL (≈ 0.303 µM), 1.25 µg/mL (≈ 2.53 µM) and 2.5 µg/mL (≈ 5.06 µM), respectively. In addition, the responders at 1 mg/kg with Candida albicans worked out at 100%.
Consider `C[C@@H](n1cnc2cc(C(F)(F)F)ccc2c1=O)[C@](O)(Cn1cncn1)c1ccc(F)cc1F` [Example 16, (1R,2R)-3-[2-(2,4-Difluorophenyl)-2-hydroxy-1-methyl-3-(1H-1,2,4-triazol-1-yl)propyl]-7-trifluoromethylquinazolin-4(3H)-one], for which the MIC was at most 0.03 µg/mL with C. albicans, 0.63 µg/mL (≈ 1.35 µM) in the assay on C. krusei and 2.5 µg/mL (≈ 5.37 µM) in the assay on Aspergillus fumigatus. Moreover, the responders at 1 mg/kg with Candida albicans was 100%. Further, the “protection on day 25 postinfection” value in the assay with systemic aspergillosis is listed as 60-100%.
As to `C[C@@H](n1cnc2cc(-c3ccc(C#N)cc3)sc2c1=O)[C@](O)(Cn1cncn1)c1ccc(F)cc1F` [Example 32, (1R,2R)-4-[3-[2-(2,4-Difluorophenyl)-2-hydroxy-1-methyl-3-(1H-1,2,4-triazol-1-yl)propyl]-4-oxo-3,4-dihydrothieno[3,2-d]pyrimidin-6-yl]benzonitrile], the responders at 1 mg/kg in the assay on Candida albicans worked out at 100%. The “protection on day 25 postinfection” value with systemic aspergillosis is given as 60-100%.
Turning to `C[C@@H](n1cnc2cc(-c3ccc(F)cc3)sc2c1=O)[C@](O)(Cn1cncn1)c1ccccc1F` [Example 81, (1R,2R)-6-(4-Fluorophenyl)-3-[2-(2-fluorophenyl)-2-hydroxy-1-methyl-3-(1H-1,2,4-triazol-1-yl)propyl]thieno[3,2-d]pyrimidin-4(3H)-one], the MIC is at most 0.03 µg/mL in the assay with C. albicans, 0.31 µg/mL (≈ 0.646 µM) with C. krusei and 10 µg/mL (≈ 20.9 µM) in the assay with Aspergillus fumigatus. The responders at 1 mg/kg in the assay on Candida albicans is 100%.
Take `CSc1ccc2c(=O)n([C@H](C)[C@](O)(Cn3cncn3)c3ccc(F)cc3F)cnc2c1` [Example 50, (1R,2R)-3-[2-(2,4-Difluorophenyl)-2-hydroxy-1-methyl-3-(1H-1,2,4-triazol-1-yl)propyl]-7-(methylthio)quinazolin-4(3H)-one]: the MIC in the assay with C. albicans was at most 0.03 µg/mL; in the assay on C. krusei it was 0.31 µg/mL (≈ 0.699 µM); with Aspergillus fumigatus, 2.5 µg/mL (≈ 5.64 µM). For the same molecule, the responders at 1 mg/kg with Candida albicans was 100%.
Consider `C[C@@H](n1cnc2cc(-c3ccc(F)cc3)sc2c1=O)[C@](O)(Cn1cncn1)c1ccc(F)cc1F` [Example 76, (1R,2R)-3-[2-(2,4-Difluorophenyl)-2-hydroxy-1-methyl-3-(1-H-1,2,4-triazol-1-yl)propyl]-6(4-fluorophenyl)thieno[3,2-d]pyrimidin-4(3H)-one], for which the MIC in the assay with C. albicans is at most 0.03 µg/mL; in the assay with C. krusei it was 0.15 µg/mL (≈ 0.302 µM); in the assay with Aspergillus fumigatus, 1.25 µg/mL (≈ 2.51 µM). Further, the responders at 1 mg/kg with Candida albicans came to 100%.
`C[C@@H](n1cnc2cc(Br)ccc2c1=O)[C@](O)(Cn1cncn1)c1ccc(F)cc1F` [Example 73, (1R,2R)-7-Bromo-3-[2-(2,4-difluorophenyl)-2-hydroxy-1-methyl-3-(1H-1,2,4-triazol-1-yl)propyl]quinazolin-4(3H)-one]: the values for the MIC in the assay with C. albicans, in the assay on C. krusei and in the assay on Aspergillus fumigatus were at most 0.03 µg/mL, 0.31 µg/mL (≈ 0.651 µM) and 0.31 µg/mL (≈ 0.651 µM), respectively. Besides, the responders at 10 mg/kg in the assay with Candida albicans came out at 100%. Besides, the “protection on day 25 postinfection” value in the assay with systemic aspergillosis was 60-100%.
With `C[C@@H](n1cnc2cc(-c3ccc(C(=N)NCCN)cc3)sc2c1=O)[C@](O)(Cn1cncn1)c1ccc(F)cc1F` [Example 70, (1R,2R)-6-[4-[(2-Aminoethylamino)(imino)methyl]phenyl]-3-[2-(2,4-difluorophenyl)-2-hydroxy-1-methyl-3-(1H-1,2,4-triazol-1-yl)propyl]thieno[3,2-d]pyrimidin-4(3H)-one], the values for the MIC with C. albicans, with C. krusei and with Aspergillus fumigatus were 0.07 µg/mL (≈ 0.124 µM), 10 µg/mL (≈ 17.7 µM) and 20 µg/mL (≈ 35.4 µM), respectively.
For the molecule `C[C@@H](n1cnc2cc(-c3ccc(Cl)cc3)sc2c1=O)[C@](O)(Cn1cncn1)c1ccc(F)cc1F` [Example 31, (1R,2R)-6-(4-Chlorophenyl)-3-[2-(2,4-difluorophenyl)-2-hydroxy-1-methyl-3-(1H-1,2,4-triazol-1-yl)propyl]thieno[3,2-d]pyrimidin-4(3H)-one], the figures for the MIC in the assay with C. albicans, in the assay with C. krusei and with Aspergillus fumigatus were at most 0.03 µg/mL, 0.07 µg/mL (≈ 0.136 µM) and 2.5 µg/mL (≈ 4.86 µM), respectively. The responders at 1 mg/kg in the assay on Candida albicans stood at 100%. The “protection on day 25 postinfection” value in the assay with systemic aspergillosis is listed as 60-100%.
